Measurements from patent US20240423982A1 (Eli Lilly and Company, priority 2023, published 2024).

Test system: new-onset type-1 diabetes patients
Assay: randomized placebo-controlled study of baricitinib 4 mg per day for 48 weeks in new-onset type 1 diabetes
Assay type: in vivo, human
Protocol: Participants: Eligibility criteria included age between 10 and 30 years, diagnosis of type 1 diabetes according to ADA criteria within 100 days of starting study drug, presence of at least one islet autoantibody and either random C-peptide>0.3 pmol/mL or C-peptide>0.2 pmol/mL per during a 2 h MMTT. Exclusion criteria included treatment with other immunomodulatory agents, and clinically significant comorbidities including cytopenias, known malignancy, history of thrombosis or LDL cholesterol>155 mg/dL. All participants received standard diabetes management with a target HbA1c of less than 7% in adults and less than 7.5% in participants less than 18 years of age, in accordance with current ADA recommendations.
Primary, secondary, and exploratory outcomes: The primary outcome was the average C-peptide during a 2 h MMTT at 48 weeks, calculated as the area under the trapezoidal curve divided by 120 minutes. Secondary outcomes included HbA1c, total daily insulin use, CGM measures from the ambulatory glucose profile. Participants were requested to wear either a Freestyle Libre2 or Dexcom G6 CGM for 14 days at baseline, 12, 24, 48, 72 and 96 weeks. Exploratory mechanistic outcomes included the assessment of basal and cytokine-stimulated phosphorylation of STAT proteins in fresh whole blood, and the frequency of T-cell subsets in PBMC. Samples for these were collected at baseline and 24 weeks.

[1] = weeks 12 and 24, but not week 48, versus placebo

CCS(=O)(=O)N1CC(CC#N)(n2cc(-c3ncnc4[nH]ccc34)cn2)C1 [baricitinib, {1-(ethylsulfonyl)-3-[4-(7H-pyrrolo[2,3-d]pyrimidin-4-yl)-1H-pyrazol-1-yl]azetidin-3-yl}acetonitrile]
tolerability (4 mg per day orally, 48 weeks): well tolerated
glucose coefficient of variation (CGM) (12, 24 and 48 weeks, versus placebo): improved significantly
HbA1c (48 weeks, mean±SEM, placebo 7.4±0.27, p=0.216): 7.0%
insulin use compared to placebo (FIG. 1B, over treatment): significantly lower insulin use
lipid profile, liver function or renal function versus placebo (baseline, 12, 24, or 48 weeks): no significant differences
time below range <70 mg/dl (<3.9 mmol/L) (CGM) (between groups): no significant differences
median number of AEs (placebo 3): 2
SAEs attributed to study medication (total of seven SAEs recorded in both groups): none of which were attributed to study medication
median C-peptide during 2 h MMTT (week 48, 4 mg per day orally, placebo 0.45 (0.13-0.63), p=0.001): 0.65 (0.31-0.82) pmol/mL/min
daily insulin dose (week 48, median, placebo 0.48 (0.37-0.64), p=0.004): 0.39 (0.22-0.57) U/kg/day
C-peptide decline compared to baseline (week 48, placebo 29.5%, p=0.008): 5.5%
HbA1c difference between groups (weeks 12, 24 or 48): did not differ significantly
daily insulin requirement versus baseline (weeks 12 and 24): decreased below baseline
median C-peptide compared to placebo (weeks 12 and 24): significantly higher
percent time above 180 mg/dl (10 mmol/l) (CGM) [1]: significantly lower
percent time between 70 and 180 mg/dL (3.9 and 10 mmol/L) (CGM) [1]: higher
